Measurements from patent US20100113421A1, “NON-NUCLEOSIDE REVERSE TRANSCRIPTASE INHIBITORS” (priority 2006, published 2010).

Legend:
[1] = tested on: mutant strain containing both the K103N and Y181C mutations; assay: Spread assay, mutant strain containing both K103N and Y181C; format: cell-based, HIV; conditions: Human immunodeficiency virus 1; analogous spread assay, K103N and Y181C double mutant strain; read-out: CIC95
Protocol: Assays for the inhibition of acute HIV-1 infection of T-lymphoid cells (alternatively referred to herein as the “spread assay”) were conducted in accordance with Vacca, J. P. et al., Proc. Natl. Acad. Sci. USA 1994, 91: 4096. The assays (using 10% FBS) tested for inhibition of wild type HIV-1 and of HIV strains containing the Y181C or K103N mutation. […] (Note that the compound of Example 6 was tested only up to a 833 nM concentration and the CIC95 value was determined to be >833 nM. The compound of Example 78 was not tested in the Y1818C assay.) The compounds of Examples 1 to 119 (including Examples 70A and 70B) had CIC95 values of less than 1000 nanomolar in the assay employing the K103N mutant strain. In an analogous assay employing a mutant strain containing both the K103N and Y181C mutations, the compounds of Examples 70A, 70B and 78-115 had CIC95 values of less than 1000 nanomolar.

[2] = tested on: HIV strain containing the Y181C mutation; assay: Spread assay, Y181C mutant strain; format: cell-based; conditions: Human immunodeficiency virus 1; spread assay, 10% FBS, Y181C mutant strain; read-out: CIC95
How it was run: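 Acute HIV-1 infection of T-lymphoid cells run in the presence of 10% FBS, […]; potency expressed as CIC95.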

SMILES	IC95 [1] [µM]	IC95 [2] [µM]
Cc1cc(C)cc(S(=O)(=O)c2c(C(N)=O)[nH]c(C(=O)N(C)Cc3c(F)cncc3F)c2C)c1 [Example 111, N5-[(3,5-difluoropyridin-4-yl)methyl]-3-[(3,5-dimethylphenyl)sulfonyl]-N5,4-dimethyl-1H-pyrrole-2,5-dicarboxamide]	< 1	< 8
CC(C)c1c(C(=O)N(C)Cc2c(F)cncc2F)[nH]c(C(N)=O)c1S(=O)(=O)c1ccccc1 [Example 112, N2-[(3,5-difluoropyridin-4-yl)methyl]-3-isopropyl-N2-methyl-4-(phenylsulfonyl)-1H-pyrrole-2,5-dicarboxamide]	< 1	< 8
Cc1cc(C)cc(S(=O)(=O)c2c(C(N)=O)[nH]c(C(=O)N(C)Cc3cc(Cl)ncc3F)c2C)c1 [Example 113, N5-[(2-chloro-5-fluoropyridin-4-yl)methyl]-3-[(3,5-dimethylphenyl)sulfonyl]-N5,4-dimethyl-1H-pyrrole-2,5-dicarboxamide]	< 1	< 8
CC(C)c1c(C(=O)N(C)Cc2cc(Cl)ncc2F)[nH]c(C(N)=O)c1S(=O)(=O)c1ccccc1 [Example 114, N2-[(2-chloro-5-fluoropyridin-4-yl)methyl]-3-isopropyl-N2-methyl-4-(phenylsulfonyl)-1H-pyrrole-2,5-dicarboxamide]	< 1	< 8
CC(C)c1c(C(=O)N(C)Cc2ccnc(N)c2F)[nH]c(C(N)=O)c1S(=O)(=O)c1ccccc1 [Example 115, N2-[(2-amino-3-fluoropyridin-4-yl)methyl]-3-isopropyl-N2-methyl-4-(phenylsulfonyl)-1H-pyrrole-2,5-dicarboxamide]	< 1	< 8
